The experiment relates to TFEB. Description: TFEB nuclear translocation assay, HeLa wt cells. The experiment is classed as cell-based. The conditions noted are these: Homo sapiens, HeLa, 2 h, 2 hrs compound treatment, Table 1 does not say HeLa wt or TRPML1 KO. The method, boiled down: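 AC50 derived from the ratio of nuclear to perinuclear ring (−5 μm) anti-TFEB immunofluorescence, imaged at ×20 over four fields per well. HeLa wt or TRPML1 KO cells were exposed to compounds for 2 hrs at 37° C, then PFA-fixed and counterstained with Hoechst.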

In general, AC50 refers to the concentration giving half of the maximal activity seen. A lower AC50 goes with greater potency.

Regarding `CC(C1CCN(c2c(F)cccc2NS(=O)(=O)c2ccc(S(=O)(=O)N(C)C)cc2)CC1)N1C[C@@H](C)O[C@@H](C)C1` (stereo partly drawn) [Compound A-748, N4-[2-(4-{1-[(2R,6S)-2,6-dimethylmorpholin-4-yl]ethyl}piperidin-1-yl)-3-fluorophenyl]-N1,N1-dimethylbenzene-1,4-disulfonamide], the concentration at half-maximal activity (AC50) is at most 2000 nM.
In turn, `CCOCC1(C)CCN(c2ccccc2NS(=O)(=O)c2ccc(S(=O)(=O)N(C)C)cc2)CC1` [Compound A-719, N4-{2-[4-(ethoxymethyl)-4-methylpiperidin-1-yl]phenyl}-N1,N1-dimethylbenzene-1,4-disulfonamide] registered an AC50 of at most 2000 nM.
In the case of `COCC1(C)CCN(c2ccccc2NS(=O)(=O)c2ccc(OC(F)(F)F)cc2)CC1` [Compound A-622, N-{2-[4-(methoxymethyl)-4-methylpiperidin-1-yl]phenyl}-4-(trifluoromethoxy)benzene-1-sulfonamide], the AC50 was 2010 to 8000 nM.
With `CC1(C)CC2(CCN(c3ccccc3NS(=O)(=O)Cc3cccc(Cl)c3)CC2)CO1` [Compound A-678, 1-(3-chlorophenyl)-N-(2-{3,3-dimethyl-2-oxa-8-azaspiro[4.5]decan-8-yl}phenyl)methanesulfonamide], the half-maximal activity concentration (AC50) is at most 2000 nM.
Under `CP(C)(=O)c1ccc(S(=O)(=O)Nc2ccccc2N2CCN(c3ccc(F)cc3F)CC2)cc1` [Compound A-165, N-{2-[4-(2,4-difluorophenyl)piperazin-1-yl]phenyl}-4-(dimethylphosphoryl)benzene-1-sulfonamide] stands 2010 to 8000 nM; under `COCC1(C)CCN(c2ccccc2NS(=O)(=O)Cc2cccc(C(C)(C)C)c2)CC1` [Compound A-627, 1-(3-tert-butylphenyl)-N-{2-[4-(methoxymethyl)-4-methylpiperidin-1-yl]phenyl}methanesulfonamide], 2010 to 8000 nM.
The same measure for `CS(=O)(=O)c1ccc(S(=O)(=O)Nc2ccccc2N2CCC(c3ccc(F)cc3F)CC2)cc1` [Compound A-100, N-{2-[4-(2,4-difluorophenyl)piperidin-1-yl]phenyl}-4-methanesulfonylbenzene-1-sulfonamide]: at most 2000 nM; for `COc1ccc(Cl)cc1CS(=O)(=O)Nc1ccccc1N1CCN(C(=O)C(C)(C)C)CC1` [Compound A-563, 1-(5-chloro-2-methoxyphenyl)-N-{2-[4-(2,2-dimethylpropanoyl)piperazin-1-yl]phenyl}methanesulfonamide]: at least 10000 nM.
Compound `COC1(C(=O)N2CCN(c3ccccc3NS(=O)(=O)c3ccc(S(=O)(=O)N(C)C)cc3)CC2)CCCCC1` [Compound A-445, N4-{2-[4-(1-methoxycyclohexanecarbonyl)piperazin-1-yl]phenyl}-N1,N1-dimethylbenzene-1,4-disulfonamide] registered a half-maximal activity concentration (AC50) of at most 2000 nM.
The same measure for `CN(C)S(=O)(=O)c1ccc(S(=O)(=O)Nc2ccccc2N2CCC(COC(C)(C)C)CC2)cc1` [Compound A-494, N4-(2-{4-[(tert-butoxy)methyl]piperidin-1-yl}phenyl)-N1,N1-dimethylbenzene-1,4-disulfonamide]: at most 2000 nM; for `COCC1(C)CCN(c2ccccc2NS(=O)(=O)c2ccc(C)cc2)CC1` [Compound A-539, N-{2-[4-(methoxymethyl)-4-methylpiperidin-1-yl]phenyl}-4-methylbenzene-1-sulfonamide]: at most 2000 nM.
Under `Cc1nn(C)c(C2=CCN(c3ccc(Cl)cc3F)CC2)c1NS(=O)(=O)c1ccc(S(=O)(=O)N(C)C)cc1` [Compound A-29, N1-(5-(1-(4-chloro-2-fluorophenyl)-1,2,3,6-tetrahydropyridin-4-yl)-1,3-dimethyl-1H-pyrazol-4-yl)-N4,N4-dimethylbenzene-1,4-disulfonamide] stands at least 10000 nM; under `CN1CC2(CCN(c3ccccc3NS(=O)(=O)c3ccc(S(=O)(=O)N(C)C)cc3)CC2)C2NCCCC21` (centres unmarked) [Compound A-269, N1,N1-dimethyl-N4-(2-{1′-methyl-octahydrospiro[piperidine-4,3′-pyrrolo[3,2-b]pyridin]-1-yl}phenyl)benzene-1,4-disulfonamide], at least 10000 nM.
Under `COCC1(C)CCN(c2ccccc2NS(=O)(=O)Cc2ccccc2F)CC1` [Compound A-579, 1-(2-fluorophenyl)-N-{2-[4-(methoxymethyl)-4-methylpiperidin-1-yl]phenyl}methanesulfonamide] stands 2010 to 8000 nM.
On to `O=S(=O)(Nc1ccccc1N1CCC(c2ccc(Cl)cc2F)CC1)c1ccc(F)c(F)c1` [Compound A-80, N-{2-[4-(4-chloro-2-fluorophenyl)piperidin-1-yl]phenyl}-3,4-difluorobenzene-1-sulfonamide], for which the AC50 was 2010 to 8000 nM.
`CN1CC2(CCN(c3ccccc3NS(=O)(=O)c3ccc(S(C)(=O)=O)cc3)CC2)c2ccc(F)cc21` [Compound A-251, N-(2-{6-fluoro-1-methyl-1,2-dihydrospiro[indole-3,4′-piperidin]-1′-yl}phenyl)-4-methanesulfonylbenzene-1-sulfonamide] yielded a concentration at half-maximal activity (AC50) of at most 2000 nM.
The same measure for `CN(C)S(=O)(=O)c1ccc(S(=O)(=O)Nc2ccccc2C#Cc2ccc(Cl)cc2F)cc1` [Compound A-3, N1-(2-((4-chloro-2-fluorophenyl)ethynyl)phenyl)-N4,N4-dimethylbenzene-1,4-disulfonamide]: at most 2000 nM.
Under `CN(C)S(=O)(=O)c1ccc(S(=O)(=O)Nc2ccccc2N2CCC(C)(CO)CC2)cc1` [Compound A-436, N4-{2-[4-(hydroxymethyl)-4-methylpiperidin-1-yl]phenyl}-N1,N1-dimethylbenzene-1,4-disulfonamide] stands 2010 to 8000 nM; under `COc1ccc(S(=O)(=O)Nc2ccccc2N2CCC(O)(c3ccc(F)cn3)CC2)cc1` [Compound A-409, N-{2-[4-(5-fluoropyridin-2-yl)-4-hydroxypiperidin-1-yl]phenyl}-4-methoxybenzene-1-sulfonamide], at least 10000 nM; under `CN(C)S(=O)(=O)c1ccc(S(=O)(=O)Nc2ccccc2N2C3CC2CN(c2ccc(Cl)cc2F)C3)cc1` [Compound A-27, N4-{2-[3-(4-chloro-2-fluorophenyl)-3,6-diazabicyclo[3.1.1]heptan-6-yl]phenyl}-N1,N1-dimethylbenzene-1,4-disulfonamide], 2010 to 8000 nM.
The same measure for `C[C@@H]1CN(C(=O)C2CCN(c3ccccc3NS(=O)(=O)c3ccc(S(=O)(=O)N(C)C)cc3)CC2)C[C@H](C)O1` [Compound A-754, N4-(2-{4-[(2R,6S)-2,6-dimethylmorpholine-4-carbonyl]piperidin-1-yl}phenyl)-N1,N1-dimethylbenzene-1,4-disulfonamide]: 2010 to 8000 nM; for `O=C1c2ccccc2S(=O)(=O)N1c1ccccc1N1CCC(c2ccc(Cl)cc2F)CC1` [Compound A-85, 2-{2-[4-(4-chloro-2-fluorophenyl)piperidin-1-yl]phenyl}-2,3-dihydro-1λ^6,2-benzothiazole-1,1,3-trione]: at least 10000 nM.
In turn, `Cc1ccc(S(=O)(=O)Nc2ccccc2N2CCC3(CC2)CN(C)c2cc(F)ccc23)cc1` [Compound A-245, N-(2-{6-fluoro-1-methyl-1,2-dihydrospiro[indole-3,4′-piperidin]-1′-yl}phenyl)-4-methylbenzene-1-sulfonamide] yielded an AC50 of at most 2000 nM.
The same measure for `CN(C)S(=O)(=O)c1ccc(S(=O)(=O)Nc2ccccc2N2CCP(=O)(c3ccc(F)cc3)CC2)cc1` [Compound A-232, N4-{2-[4-(4-fluorophenyl)-4-oxo-1,4λ^5-azaphosphinan-1-yl]phenyl}-N1,N1-dimethylbenzene-1,4-disulfonamide]: at least 10000 nM; for `Cc1ccc(S(=O)(=O)N(C)c2ccccc2N2CCC(c3ccc(Cl)cc3F)CC2)cc1` [Compound A-107, N-{2-[4-(4-chloro-2-fluorophenyl)piperidin-1-yl]phenyl}-N,4-dimethylbenzene-1-sulfonamide]: at least 10000 nM.
Under `COCC1(C)CCN(c2ccccc2NS(=O)(=O)c2ccc3c(c2)OC(C)(C)O3)CC1` [Compound A-721, N-{2-[4-(methoxymethyl)-4-methylpiperidin-1-yl]phenyl}-2,2-dimethyl-2H-1,3-benzodioxole-5-sulfonamide] stands at most 2000 nM; under `CN(C)S(=O)(=O)c1ccc(S(=O)(=O)Nc2ccccc2N2CC3CC(C2)N3c2ccc(Cl)cc2F)cc1` [Compound A-30, N4-{2-[6-(4-chloro-2-fluorophenyl)-3,6-diazabicyclo[3.1.1]heptan-3-yl]phenyl}-N1,N1-dimethylbenzene-1,4-disulfonamide], at most 2000 nM.
Under `CC1(C)CC2(CCN(c3ccccc3NS(=O)(=O)c3ccc(OC(F)(F)F)cc3)CC2)CO1` [Compound A-673, N-(2-{3,3-dimethyl-2-oxa-8-azaspiro[4.5]decan-8-yl}phenyl)-4-(trifluoromethoxy)benzene-1-sulfonamide] stands 2010 to 8000 nM; under `Cc1ccc(CS(=O)(=O)Nc2ccccc2N2CCC3(CC2)COC(C)(C)C3)cc1F` [Compound A-677, N-(2-{3,3-dimethyl-2-oxa-8-azaspiro[4.5]decan-8-yl}phenyl)-1-(3-fluoro-4-methylphenyl)methanesulfonamide], at most 2000 nM; under `CC(c1cccc(F)c1N1CCC(CN2C[C@H]3C[C@@H](C2)O3)CC1)S(=O)(=O)c1ccc(S(=O)(=O)N(C)C)cc1` (stereo partly drawn) [Compound A-837, 4-{1-[3-fluoro-2-(4-{[(1R,5S)-6-oxa-3-azabicyclo[3.1.1]heptan-3-yl]methyl}piperidin-1-yl)phenyl]ethanesulfonyl}-N,N-dimethylbenzene-1-sulfonamide], at most 2000 nM.
The compound `CN(C)S(=O)(=O)c1ccc(S(=O)(=O)Nc2cccnc2N2CCC(c3ccc(Cl)cc3F)CC2)cc1` [Compound A-109, N4-{2-[4-(4-chloro-2-fluorophenyl)piperidin-1-yl]pyridin-3-yl}-N1,N1-dimethylbenzene-1,4-disulfonamide] showed an AC50 of at most 2000 nM.
In the case of `Cc1ccc(S(=O)(=O)Nc2cccc(F)c2N2CCC(CN3C[C@@H](C)O[C@@H](C)C3)CC2)cc1` [Compound A-771, N-[2-(4-{[(2R,6S)-2,6-dimethylmorpholin-4-yl]methyl}piperidin-1-yl)-3-fluorophenyl]-4-methylbenzene-1-sulfonamide], the AC50 is at most 2000 nM.

(Values after patent publication US20230104936A1, “TRPML MODULATORS” (Casma Therapeutics, Inc., priority 2019, published 2023).)
